Measured values: PubChem BioAssay AID212 (DTP/NCI, 2004)
Values joined by “and” are separate entries in the source; they are usually repeats but may differ in a detail not shown here. Equal values may be shown once. Results filed as inconclusive are left out.

Tested on: BDF1 mice, colon carcinoma 38 sc, T/C %
Assay: NCI In Vivo Anticancer Drug Screen. Data for tumor model Colon Carcinoma 38 (subcutaneous) in B6D2F1 (BDF1) mice
Outline: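 Ratio of survival or tumor size, compound-treated animals relative to vehicle controls, in tumor-bearing mice.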

[1] = endpoint: median tumor weight (est.), dose: 6.25 mg/kg/injection, schedule: Q07DX002 (ip), vehicle: saline, higher = larger tumour
[2] = endpoint: median tumor weight (est.), dose: 12.5 mg/kg/injection, schedule: Q07DX002 (ip), vehicle: Klucel (hydroxypropylcellulose) (HPC), higher = larger tumour
[3] = endpoint: median tumor weight (est.), dose: 200.0 mg/kg/injection, schedule: Q07DX002 (ip), vehicle: Klucel (hydroxypropylcellulose) (HPC), higher = larger tumour
[4] = endpoint: median tumor weight (est.), dose: 25.0 mg/kg/injection, schedule: Q07DX002 (ip), vehicle: saline, higher = larger tumour
[5] = endpoint: median tumor weight (est.), dose: 50.0 mg/kg/injection, schedule: Q07DX002 (ip), vehicle: saline, higher = larger tumour
[6] = endpoint: median tumor weight (est.), dose: 25.0 mg/kg/injection, schedule: Q07DX002 (ip), vehicle: saline with Tween-80, higher = larger tumour

For `N=C1C=C[C@]2(O)C[C@H](Cl)CN12`, the T/C (endpoint: median tumor weight (est.), dose: 1.56 mg/kg/injection, schedule: Q07DX002 (ip), vehicle: saline, higher = larger tumour) was 73 % of control, the T/C (endpoint: median tumor weight (est.), dose: 3.12 mg/kg/injection, schedule: Q07DX002 (ip), vehicle: saline, higher = larger tumour) was 79 % of control and the T/C [1] was 71 % of control. For the same molecule, the T/C (endpoint: median tumor weight (est.), dose: 12.5 mg/kg/injection, schedule: Q07DX002 (ip), vehicle: saline, higher = larger tumour) was 88 % of control.
With `COc1c(CNC(=O)CCl)cc2[nH]c(C)cc2c1CNC(=O)CCl` the T/C [2] was 101 % of control, the T/C (endpoint: median tumor weight (est.), dose: 50.0 mg/kg/injection, schedule: Q07DX002 (ip), vehicle: Klucel (hydroxypropylcellulose) (HPC), higher = larger tumour) was 98 % of control and the T/C (endpoint: median tumor weight (est.), dose: 100.0 mg/kg/injection, schedule: Q07DX002 (ip), vehicle: Klucel (hydroxypropylcellulose) (HPC), higher = larger tumour) was 93 % of control. The T/C [3] was 83 % of control and the T/C (endpoint: median tumor weight (est.), dose: 400.0 mg/kg/injection, schedule: Q07DX002 (ip), vehicle: Klucel (hydroxypropylcellulose) (HPC), higher = larger tumour) was 111 % of control.
In the case of `N=C(N)CCNC(=O)C1CCC(N)=N1` (stereo not given), the T/C (endpoint: median tumor weight (est.), dose: 3.38 mg/kg/injection, schedule: Q07DX002 (ip), vehicle: saline, higher = larger tumour) is reported as 97 % of control, the T/C (endpoint: median tumor weight (est.), dose: 6.75 mg/kg/injection, schedule: Q07DX002 (ip), vehicle: saline, higher = larger tumour) is reported as 115 % of control and the T/C (endpoint: median tumor weight (est.), dose: 13.5 mg/kg/injection, schedule: Q07DX002 (ip), vehicle: saline, higher = larger tumour) is reported as 120 % of control. The T/C (endpoint: median tumor weight (est.), dose: 27.0 mg/kg/injection, schedule: Q07DX002 (ip), vehicle: saline, higher = larger tumour) was 91 % of control.
With `CCCCc1ccc(-n2c(C)c(COC(=O)NC)c(COC(=O)NC)c2C)cc1` the T/C [2] was 88 % of control, the T/C (endpoint: median tumor weight (est.), dose: 25.0 mg/kg/injection, schedule: Q07DX002 (ip), vehicle: Klucel (hydroxypropylcellulose) (HPC), higher = larger tumour) was 66 % of control and the T/C [3] was 60 % of control.
With `NC(=O)c1[nH]nc(C2OC(CO)C(O)C2O)c1O` (stereo not given) the T/C (endpoint: median survival time, dose: 0.75 mg/kg/injection, schedule: Q04DX004 (ip), vehicle: saline, higher = longer survival) was 77 % of control and 79 % of control, the T/C (endpoint: median survival time, dose: 1.5 mg/kg/injection, schedule: Q04DX004 (ip), vehicle: saline, higher = longer survival) was 90 % of control and 105 % of control and the T/C (endpoint: median survival time, dose: 3.0 mg/kg/injection, schedule: Q04DX004 (ip), vehicle: saline, higher = longer survival) was 63 % of control and 65 % of control. The T/C (endpoint: median survival time, dose: 6.0 mg/kg/injection, schedule: Q04DX004 (ip), vehicle: saline, higher = longer survival) was 59 % of control, the T/C (endpoint: median survival time, dose: 12.0 mg/kg/injection, schedule: Q04DX004 (ip), vehicle: saline, higher = longer survival) was 43 % of control and the T/C (endpoint: median tumor weight (est.), dose: 0.31 mg/kg/injection, schedule: Q07DX003 (ip), vehicle: saline, higher = larger tumour) was 117 % of control. For the same molecule, the T/C (endpoint: median tumor weight (est.), dose: 0.62 mg/kg/injection, schedule: Q07DX003 (ip), vehicle: saline, higher = larger tumour) was 90 % of control, the T/C (endpoint: median tumor weight (est.), dose: 1.25 mg/kg/injection, schedule: Q07DX003 (ip), vehicle: saline, higher = larger tumour) was 97 % of control and the T/C (endpoint: median tumor weight (est.), dose: 4.32 mg/kg/injection, schedule: Q04DX004 (ip), vehicle: saline, higher = larger tumour) was 81 % of control. The T/C (endpoint: median tumor weight (est.), dose: 5.0 mg/kg/injection, schedule: Q07DX002 (ip), vehicle: saline, higher = larger tumour) was 100 % of control, the T/C (endpoint: median tumor weight (est.), dose: 5.0 mg/kg/injection, schedule: Q07DX003 (ip), vehicle: saline, higher = larger tumour) was 93 % of control and the T/C (endpoint: median tumor weight (est.), dose: 7.2 mg/kg/injection, schedule: Q04DX004 (ip), vehicle: saline, higher = larger tumour) was 61 % of control. For the same molecule, the T/C (endpoint: median tumor weight (est.), dose: 10.0 mg/kg/injection, schedule: Q07DX002 (ip), vehicle: saline, higher = larger tumour) was 86 % of control, the T/C (endpoint: median tumor weight (est.), dose: 10.0 mg/kg/injection, schedule: Q07DX003 (ip), vehicle: saline, higher = larger tumour) was 82 % of control and the T/C (endpoint: median tumor weight (est.), dose: 12.0 mg/kg/injection, schedule: Q04DX004 (ip), vehicle: saline, higher = larger tumour) was 17 % of control.
With `C[CH2][Pb]([CH2]C)([CH2]C)[O]C(=O)COc1ccccc1` the T/C (endpoint: median tumor weight (est.), dose: 0.75 mg/kg/injection, schedule: Q07DX002 (ip), vehicle: Klucel (hydroxypropylcellulose) (HPC), higher = larger tumour) was 166 % of control, the T/C (endpoint: median tumor weight (est.), dose: 3.0 mg/kg/injection, schedule: Q07DX002 (ip), vehicle: Klucel (hydroxypropylcellulose) (HPC), higher = larger tumour) was 151 % of control and the T/C (endpoint: median tumor weight (est.), dose: 6.0 mg/kg/injection, schedule: Q07DX002 (ip), vehicle: Klucel (hydroxypropylcellulose) (HPC), higher = larger tumour) was 118 % of control. The T/C (endpoint: median tumor weight (est.), dose: 12.0 mg/kg/injection, schedule: Q07DX002 (ip), vehicle: Klucel (hydroxypropylcellulose) (HPC), higher = larger tumour) was 176 % of control.
With `N=c1ccn2c(n1)OC1C(O)C(CO)OC12` (stereo not given) the T/C [4] was 84 % of control, the T/C [5] was 105 % of control and the T/C (endpoint: median tumor weight (est.), dose: 50.0 mg/kg/injection, schedule: Q07DX003 (ip), vehicle: suspension in saline, higher = larger tumour) was 94 % of control. For the same molecule, the T/C (endpoint: median tumor weight (est.), dose: 100.0 mg/kg/injection, schedule: Q07DX003 (ip), vehicle: suspension in saline, higher = larger tumour) was 73 % of control, the T/C (endpoint: median tumor weight (est.), dose: 200.0 mg/kg/injection, schedule: Q07DX003 (ip), vehicle: suspension in saline, higher = larger tumour) was 66 % of control and the T/C (endpoint: median tumor weight (est.), dose: 400.0 mg/kg/injection, schedule: Q07DX003 (ip), vehicle: suspension in saline, higher = larger tumour) was 51 % of control. For the same molecule, the T/C (endpoint: median tumor weight (est.), dose: 800.0 mg/kg/injection, schedule: Q07DX003 (ip), vehicle: suspension in saline, higher = larger tumour) was 20 % of control, the T/C (endpoint: median tumor weight (est.), dose: 1600.0 mg/kg/injection, schedule: Q07DX002 (ip), vehicle: saline, higher = larger tumour) was 31 % of control and the T/C (endpoint: median tumor weight (est.), dose: 1600.0 mg/kg/injection, schedule: Q07DX003 (ip), vehicle: suspension in saline, higher = larger tumour) was 19 % of control.
For `CC(=O)Oc1c[nH]c(=O)[nH]c1=O`, the T/C (endpoint: median tumor weight (est.), dose: 50.0 mg/kg/injection, schedule: Q07DX002 (ip), vehicle: distilled water + Tween-80, higher = larger tumour) was 107 % of control, the T/C (endpoint: median tumor weight (est.), dose: 100.0 mg/kg/injection, schedule: Q07DX002 (ip), vehicle: distilled water + Tween-80, higher = larger tumour) was 108 % of control and 121 % of control and the T/C (endpoint: median tumor weight (est.), dose: 400.0 mg/kg/injection, schedule: Q07DX002 (ip), vehicle: distilled water + Tween-80, higher = larger tumour) was 124 % of control. The T/C (endpoint: median tumor weight (est.), dose: 800.0 mg/kg/injection, schedule: Q07DX002 (ip), vehicle: distilled water + Tween-80, higher = larger tumour) was 121 % of control and 102 % of control.
With `CC(=O)Nc1ccc(Nc2ccc(C(=C3C=CC(=[N+](C)CCC#N)C=C3)c3ccc(N(C)CCC#N)cc3)cc2)cc1` the T/C [6] was 77 % of control and 93 % of control, the T/C (endpoint: median tumor weight (est.), dose: 50.0 mg/kg/injection, schedule: Q07DX002 (ip), vehicle: saline with Tween-80, higher = larger tumour) was 91 % of control and the T/C (endpoint: median tumor weight (est.), dose: 100.0 mg/kg/injection, schedule: Q07DX002 (ip), vehicle: saline with Tween-80, higher = larger tumour) was 52 % of control.
For `O=[n+]1c2ccccc2n([O-])c2ccccc21.[Cl][Ni][Cl]`, the T/C (endpoint: median tumor weight (est.), dose: 3.12 mg/kg/injection, schedule: Q07DX002 (ip), vehicle: saline with Tween-80, higher = larger tumour) was 89 % of control, the T/C (endpoint: median tumor weight (est.), dose: 6.25 mg/kg/injection, schedule: Q07DX002 (ip), vehicle: saline with Tween-80, higher = larger tumour) was 111 % of control and the T/C (endpoint: median tumor weight (est.), dose: 12.5 mg/kg/injection, schedule: Q07DX002 (ip), vehicle: saline with Tween-80, higher = larger tumour) was 89 % of control. The T/C [6] was 97 % of control.
`O=C(O)C1CC(c2ccccc2)=NN1c1ccccc1` (stereo not given) was tested, and the T/C (endpoint: median tumor weight (est.), dose: 25.0 mg/kg/injection, schedule: Q07DX002 (ip), vehicle: water, higher = larger tumour) was 114 % of control and 103 % of control, the T/C (endpoint: median tumor weight (est.), dose: 100.0 mg/kg/injection, schedule: Q07DX002 (ip), vehicle: water, higher = larger tumour) was 65 % of control and the T/C (endpoint: median tumor weight (est.), dose: 200.0 mg/kg/injection, schedule: Q07DX002 (ip), vehicle: water, higher = larger tumour) was 56 % of control and 69 % of control.
`c1cc2n(n1)CCN2` was tested, and the T/C [1] was 76 % of control, the T/C (endpoint: median tumor weight (est.), dose: 12.5 mg/kg/injection, schedule: Q07DX003 (ip), vehicle: saline, higher = larger tumour) was 110 % of control and the T/C (endpoint: median tumor weight (est.), dose: 25.0 mg/kg/injection, schedule: Q01DX005 (ip), vehicle: saline, higher = larger tumour) was 86 % of control. For the same molecule, the T/C (endpoint: median tumor weight (est.), dose: 25.0 mg/kg/injection, schedule: Q04DX003 (ip), vehicle: saline, higher = larger tumour) was 84 % of control, the T/C [4] was 94 % of control and the T/C (endpoint: median tumor weight (est.), dose: 25.0 mg/kg/injection, schedule: Q07DX003 (ip), vehicle: saline, higher = larger tumour) was 92 % of control. For the same molecule, the T/C (endpoint: median tumor weight (est.), dose: 50.0 mg/kg/injection, schedule: Q01DX005 (ip), vehicle: saline, higher = larger tumour) was 36 % of control, the T/C [5] was 166 % of control and the T/C (endpoint: median tumor weight (est.), dose: 50.0 mg/kg/injection, schedule: Q07DX003 (ip), vehicle: saline, higher = larger tumour) was 74 % of control. The T/C (endpoint: median tumor weight (est.), dose: 100.0 mg/kg/injection, schedule: Q01DX005 (ip), vehicle: saline, higher = larger tumour) was 44 % of control, the T/C (endpoint: median tumor weight (est.), dose: 100.0 mg/kg/injection, schedule: Q04DX003 (ip), vehicle: saline, higher = larger tumour) was 42 % of control and the T/C (endpoint: median tumor weight (est.), dose: 100.0 mg/kg/injection, schedule: Q07DX003 (ip), vehicle: saline, higher = larger tumour) was 65 % of control. The T/C (endpoint: median tumor weight (est.), dose: 200.0 mg/kg/injection, schedule: Q01DX005 (ip), vehicle: saline, higher = larger tumour) was 47 % of control, the T/C (endpoint: median tumor weight (est.), dose: 200.0 mg/kg/injection, schedule: Q04DX003 (ip), vehicle: saline, higher = larger tumour) was 97 % of control and the T/C (endpoint: median tumor weight (est.), dose: 200.0 mg/kg/injection, schedule: Q07DX003 (ip), vehicle: saline, higher = larger tumour) was 66 % of control. For the same molecule, the T/C (endpoint: median tumor weight (est.), dose: 400.0 mg/kg/injection, schedule: Q04DX003 (ip), vehicle: saline, higher = larger tumour) was 75 % of control and the T/C (endpoint: median tumor weight (est.), dose: 400.0 mg/kg/injection, schedule: Q07DX003 (ip), vehicle: saline, higher = larger tumour) was 56 % of control.
